Laboratory results taken from patent publication US10433539B2, “Composition and solution with controlled calcium ion level, and related method and use for reperfusion” (TEVOSOL, INC., priority 2014, dated 2019).

Tested on: harvested pig hearts
Conditions: 500 μmol/L lidocaine in cardioplegic compositions, combined data of Part 1 and Part 2 (1, 3, 5 hours)
Source text: Part 1: The next study assessed if there were potential incremental benefits to increasing the duration of reperfusion of harvested donor hearts with a mildly acidic hypocalcemic oxygenated cardioplegic composition.
The sample solutions used for these tests were the same as Sample solutions IIIC described above.

CCN(CC)CC(=O)Nc1c(C)cccc1C [lidocaine]
effect of lidocaine concentration on donor heart myocardial function: debilitating effects
